Key:
[1] = system: A. fumigatus Af293 biofilm; experiment: A. fumigatus biofilm assay (crystal violet); assay type: cell-based, Aspergillus fumigatus
Experimental: A. fumigatus Af293 was routinely grown on Sabouraud dextrose agar (SDA) in 100 ml cell culture flasks at 37° C. for 3-4 days until a lawn of fungal growth was observed.
(§1) A. fumigatus Af293 was grown on SDA in 100 ml cell culture flasks at 37° C. for 3-4 days. Conidia were harvested by flooding the surface of the agar plates with 5 ml PBS (Oxoid) containing 0.025% (v/v) Tween 20 and gently moving the liquid over the surface of the fungal lawn. The conidial suspension was transferred into a 25 ml sterile container and conidia were counted using a Neubauer haemocytometer and light microscope. Conidia were adjusted to the required concentration in RPMI 1640 (Sigma) buffered to pH 7.0 with 0.165 M MOPS immediately prior to biofilm formation analysis.
(§2) To assess biofilm formation, counted A. fumigatus spores (1×10^5) in MOPS buffered RPMI 1640 were inoculated into 24- and 96-well plates and grown overnight in the presence of 100 μM HHQ, PQS and the test compounds. After 24 hrs, the media was removed and the biofilm washed twice with distilled water after which 0.1% crystal violet (CV) was added to each well and allowed to stand for 1 hr at room temperature. The crystal violet was removed and all wells washed in a water bath by inversion. Ethanol was added to each well to solubilise biofilms after which samples were read on a spectrophotometer at Abs595 nm.

[2] = system: DU145; experiment: LDH release cytotoxicity, DU145; assay type: cell-based; details: DU145 cell line; percentage of 0.1% Triton
Experimental: (§3) Lactate dehydrogenase (LDH) release from IB3 lung epithelial cells was assayed as a measure of cytotoxicity using an LDH colorimetric kit (Roche) according to manufacturers' instructions. Briefly, IB3-1 cells were seeded onto 96 well plates and treated with methanol (control) and test compounds (100 μM). Following 16 hr incubation at 37° C. and 5% CO2, supernatants were removed and added to catalyst reaction mixture in a fresh plate and further incubated at 37° C. and 5% CO2 for 30 mins to allow for colour development. After this period, the plate was analysed on an ELISA plate reader at OD490 nm. Cytotoxicity was expressed as a percentage of cells treated with 0.1% (v/v) Triton (100% cytotoxicity). The results are detailed in table 3:
(§4) The above experiments were repeated, testing some compounds against further cell lines (A549, DU145 and HeLa).

[3] = system: A. fumigatus CFBRC2 biofilm; experiment: A. fumigatus biofilm assay, clinical source CFBRC2; assay type: cell-based, Aspergillus fumigatus; details: biofilm from clinical source CFBRC2
Experimental: as §1, §2
(§5) The above experiments were carried out using biofilms grown from laboratory sources of A. fumigatus. The experiments were repeated to test some compounds against biofilms grown from three different clinical sources of A. fumigatus (CFBRC1, CFBRC2 and CFBRC3. The results are shown in table 8: […]

[4] = system: A. fumigatus CFBRC1 biofilm; experiment: A. fumigatus biofilm assay, clinical source CFBRC1; assay type: cell-based, Aspergillus fumigatus; details: biofilm from clinical source CFBRC1
Experimental: as §1, §2, §5

[5] = system: Pseudomonus aeruginosa; experiment: Virulence of Pseudomonas aeruginosa (summary statement); assay type: cell-based; details: unlike HHQ and PQS
Experimental: The virulence of compounds B1, B2, C2, C3, C4, C5, C6, C8 and C11 towards P. aeruginosa was assessed using the following method:
P. aeruginosa strains were cultured as described above for 24 hr, with the addition of test compounds (10 μM). Cultures were centrifuged at 4000 rpm for 10 minutes and the cell free supernatant (5 ml) removed. Chloroform (3 ml) was added, and mixed by vortex. After centrifugation at 4000 rpm for 5 mins, the lower aqueous phase was transferred to 0.2 M HCl (2 ml). Samples were mixed by vortex and centrifuged at 4000 rpm for 5 mins to separate the phases. An aliquot of the top phase (1 ml) was removed and spectrophotmetrically analysed at OD570 nm. Phenazine production was calculated using the following formula: OD570 nm×2×17.072 and the units expressed in μg/ml. […]

[6] = system: A. fumigatus CFBRC3 biofilm; experiment: A. fumigatus biofilm assay, clinical source CFBRC3; assay type: cell-based, Aspergillus fumigatus; details: biofilm from clinical source CFBRC3
Experimental: as §1, §2, §5

[7] = system: mammalian cells; experiment: Cytotoxicity towards mammalian cells (summary statement); assay type: cell-based
Experimental: as §3, §4

[8] = system: C. albicans strain SC5314 biofilm; experiment: XTT metabolic assay of C. albicans biofilm; assay type: cell-based, Candida albicans; details: for XTT result, Mean (MeOH control = 1) / Absorbance at 492 nm, Mean (XTT): C. albicans biofilm; for Absorbance at 492 nm, Mean (XTT): test compound 100 μM, 24 hr, MeOH control 0.647, untreated 0.851; for effectiveness against fungal biofilms formed by Candida albicans (in words): summary statement
Experimental: C. albicans strain SC5314 was sub-cultured from 15% (v/v) glycerol stocks at −80° C. onto Yeast Peptone Dextrose (YPD) medium [1% (w/v) yeast extract, 2% (w/v) peptone and 2% (w/v) dextrose] and incubated at 30° C. overnight.
The test compounds in desiccated form were re-suspended in Methanol to create a 10 mM stock. […]
The ability of some of the compounds detailed in example 1 to disrupt Candida albicans was tested using Confocal Scanning Laser Microscopy and an XTT Metabolic Assay. The XTT assay is a commonly used quantitative method assessing Candida biofilm mass and growth often in response to novel drug therapies.
C. albicans biofilm formation was carried out in 96 well plates by a method of the prior art. Briefly, C. albicans was inoculated into Yeast Nitrogen Base [10% (w/v)] and glucose/maltose [10% (w/v)] and incubated overnight at 30° C. Seeding densities for all subsequent experiments (N=3) were OD600=0.05. Cells were grown in Yeast Nitrogen Base supplemented with 1 M Phosphate buffer and acetyl-D-glucosamine (YNB-NP) along with appropriate volumes of test compound to provide the desired concentration. Cells were cultured in 96 well plates for 1 hr at 37° C. to facilitate yeast attachment. After this incubation, the supernatants were aspirated, the wells washed twice with YNB-NP media, and fresh media with the same concentration of test compound added to the appropriate wells. The plate was incubated for 24 hr at 37° C. The next day, the cultures were aspirated and the wells washed once with YNB-NP media.
C. albicans biofilm quantification was carried out in 96 well plates using a semi-quantitative Tetrazolium salt, 2,3-bis-(2-methoxy-4-nitro-5-sulfophenyl)-2H tetrazolium-5-carboxanilide inner salt (XTT) reduction assay (Hawser, Tunney et al, Antimicrob Agents Chemother. 2004 May; 48(5):1879-81). XTT (0.01 g) was dissolved in sterile water (20 ml) and filter sterilized. 10 μl of Menadione dissolved in Acetone was added to the XTT solution, just before use. The XTT-Menadione Solution (100 μl) was added to each well. The plate was incubated in the dark at 37° C. for up to 2 hr to allow for colour development. The OD492 nm was recorded for each well. Experiments were repeated at least three times, with at least eight technical replicates.
Experiments were first carried out using the test compound at concentration of 100 μM.

[9] = system: IB3 lung epithelial cells; experiment: LDH release cytotoxicity, IB3-1 cells; assay type: cell-based; details: 100 μM, 16 hr, percentage of 0.1% Triton (100% cytotoxicity), MeOH 3.844
Experimental: as §3, with “cytotoxicity).” for “cytotoxicity). The results are detailed in table 3:”

[10] = system: pqsA-lacZ promoter fusion; experiment: Promoter fusion based expression analysis (pqsA-lacZ, Miller units); assay type: cell-based, P. aeruginosa; details: PAO1 pqsA-pqsA-lacZ strain, 100 μM, overnight; methanol control 12287
Experimental: (§6) P. aeruginosa strains, PAO1 and pqsA mutant, containing the chromosomally inserted pqsA-lacZ promoter fusion on plasmid pUC18-mini-Tn7, were sub-cultured from glycerol stocks onto LB agar plates, supplemented with Carbenicillin (200 μg/ml) and X-gal (40 μg/ml), and incubated at 37° C. overnight. Single colonies were inoculated into LB broth (20 ml), supplemented with Carbenicillin (200 μg/ml), and incubated at 37° C., shaking at 180 rpm overnight. For subsequent experiments, the OD600 nm was recorded and a starting OD600 nm of 0.02 was inoculated into fresh LB broth, supplemented with Carbenicillin (200 μg/ml) and incubated at 37° C., shaking at 180 rpm.
Promoter fusion analyses were performed in a 96-well format. Briefly, overnight cultures of wild-type PAO1 pqsA-lacZ (pLP0996) and mutant strain PAO1 pqsA^− pqsA-LacZ were diluted to OD600 nm=0.02 in LB. Test compounds at 100 μM final concentration were added, mixed, aliquoted into 96 well plates and incubated overnight at 37° C. with shaking. The next day, OD600 nm values were recorded in a plate reader. Aliquots of cells (0.02 ml) were permeabilised [100 mM dibasic sodium phosphate (Na2HPO4), 20 mM KCl, 2 mM MgSO4, 0.8 mg/mL CTAB (hexadecyltrimethylammonium bromide), 0.4 mg/mL sodium deoxycholate, 5.4 μL/mL beta-mercaptoethanol] and added to substrate solution [60 mM Na2HPO4, 40 mM NaH2PO4, 1 mg/mL o-nitrophenyl-β-D-Galactoside (ONPG), 2.7 μL/mL β-mercaptoethanol]. The kinetics of colour development was monitored and the reactions were stopped using 1M NaCO3. OD420 nm were recorded as above. Miller units were calculated using the following equation; 1000×[OD420 nm/(OD600 nm)×0.02 ml×reaction time (mins)].
(§7) The phenazine production levels and Miller units in the PAO1 pqsA-pqsA-lacZ strain are detailed in table 5.
(§8) The virulence of compounds B2, C13 and C15 towards P. aeruginosa was assessed using an analogous method.

[11] = system: P. aeruginosa PAO1 pqsA-pqsA-lacZ strain; experiment: Phenazine extraction (phenazine production); assay type: cell-based; details: PAO1 pqsA-pqsA-lacZ strain, test compounds 10 μM, 24 hr; methanol control 0.080
Experimental: as §6
P. aeruginosa strains were cultured as described above for 24 hr, with the addition of test compounds (10 μM). Cultures were centrifuged at 4000 rpm for 10 minutes and the cell free supernatant (5 ml) removed. Chloroform (3 ml) was added, and mixed by vortex. After centrifugation at 4000 rpm for 5 mins, the lower aqueous phase was transferred to 0.2 M HCl (2 ml). Samples were mixed by vortex and centrifuged at 4000 rpm for 5 mins to separate the phases. An aliquot of the top phase (1 ml) was removed and spectrophotmetrically analysed at OD570 nm. Phenazine production was calculated using the following formula: OD570 nm×2×17.072 and the units expressed in μg/ml.
as §7, §8

Compound	Relative absorbance at 595 nm compared to methanol control, Mean ([1]; A. fumigatus Af293 biofilm, 100 μM, 24 hrs, crystal violet)	effectiveness against fungal biofilms formed by Aspergillus fumigatus (in words) ([1]; summary statement)	Cytotoxicity, Mean (LDH release) [2] [%]	Relative absorbance compared to MeOH (=1), Mean [3]	Relative absorbance compared to MeOH (=1), Mean [4]	effect on virulence of Pseudomonus aeruginosa (in words) [5]	Relative absorbance compared to MeOH (=1), Mean [6]	cytotoxicity towards mammalian cells (in words) [7]	XTT result, Mean (MeOH control = 1) ([8]; 10 μM)	XTT result, Mean (MeOH control = 1) ([8]; 50 μM)	XTT result, Mean (MeOH control = 1) ([8]; 100 μM)	Absorbance at 492 nm, Mean (XTT) [8]	% Cytotoxicity, Mean (LDH release) [9] [%]	effectiveness against fungal biofilms formed by Candida albicans (in words) [8]	Miller Units, Mean [10] [Miller Units]	Phenazine, Mean [11] [µg/mL]
CCCCCCCCCc1cc(=O)c2ccccc2[nH]1 [Compound C10]	0.24	effective	31.7	0.567	0.772	do not increase the virulence	0.670	reduced cytotoxicity	0.58	0.50	0.53	0.419	–	–	–	–
CCCCCCCc1cc(=O)c2cc(C)ccc2[nH]1 [Compound C3]	–	–	32.42	–	–	do not increase the virulence	–	–	0.71	0.57	0.51	0.307	23.77	effective	18350	0.774
CCCCCCCn1c(=O)cc(O)c2ccccc21 [Compound C6]	–	–	–	–	–	do not increase the virulence	–	reduced cytotoxicity	–	–	–	0.336	19.70	effective	16678	0.011
